Structures are written as SMILES. pIC50: −log10 of the molar value.

The term pIC50 denotes the IC50 on a negative log10 scale, so that one unit is a factor of ten.

For this assay, the system named is SARS-CoV-2. Nature of the assay: Antiviral activity against SARS CoV-2 assessed as inhibition of viral entry into HEK293T-hACE2 cells pretreated compound with HIV-1-based SARS CoV-2 pseudovirus harboring reporter NanoLuc luciferase gene for 1 hr followed by exposure to HEK293T-hACE2 cells measured after 48 hrs by Nano-Glo luciferase assay. The format is functional, organism-based. Conditions: Severe acute respiratory syndrome coronavirus 2.
Turning to `CCOC(=O)c1c(CSc2ccccc2)n(C)c2cc(Br)c(O)c(CN(C)C)c12`, the pIC50 is 5.64.

On to `Cc1ccc(Cn2c(CSc3c(C)cc(C)cc3C)c(C(=O)NC3CCN(C(C)C)CC3)c3cc(O)c(Br)cc32)cc1`, for which the pIC50 was 6.77. In the case of `Cc1ccc(Cn2c(CSc3c(C)cc(C)cc3C)c(C(=O)N3CCC(N4CCOCC4)CC3)c3cc(O)c(Br)cc32)cc1` it was 6.55.

The record behind these values is ChEMBL document CHEMBL6134895, “Strategic Design and Optimization of Umifenovir Analogues: Balancing Antiviral Efficacy and hERG Toxicity against SARS-CoV-2” (J Med Chem, 2025).
